According to ChEMBL document CHEMBL1144786, “synthesis and biological evaluation of fully functionalized seco-pancratistatin analogues” (2008):
In brackets after ≈: the same amount, converted by molar mass.

Assays:
MCF7 = test: Cytotoxicity against human MCF7 cells; format: functional; conditions: read-out: ED50 (the source's name)
P388 = test: Cytotoxicity against mouse P388 cells; format: functional; conditions: read-out: ED50 (the source's name)

| SMILES | EC50 (MCF7) | EC50 (P388) |
| --- | --- | --- |
| O=C(NC[C@@H](c1ccc2c(c1)OCO2)[C@@H](O)[C@H](O)[C@@H](O)CO)c1ccccc1 | > 30 µg/mL |  |
| O=C1N[C@H]2[C@H](O)[C@H](O)CC[C@@H]2c2cc3c(cc21)OCO3 |  | 1.39 µg/mL (≈ 5.01 µM) |
| CC1(C)O[C@@H]([C@H](O)[C@@H](CNC(=O)c2ccccc2)c2ccc3c(c2)OCO3)[C@H](CO)O1 | > 30 µg/mL |  |
| O=C1N[C@H]2C[C@H](O)[C@@H](O)C[C@@H]2c2cc3c(cc21)OCO3 |  | 0.45 µg/mL (≈ 1.62 µM) |
| O=C1N[C@H]2[C@H](O)[C@H](O)[C@@H](O)[C@H](O)[C@@H]2c2cc3c(c(O)c21)OCO3 [PANCRATISTATIN] |  | 0.039 µg/mL (≈ 0.12 µM) |
